Test results taken from EP4707280A1, “1,4-CINEOLE DERIVATIVE AND INTERMEDIATE THEREOF, HERBICIDE CONTAINING SAID DERIVATIVE AS ACTIVE INGREDIENT, METHOD FOR USING HERBICIDE, AND METHOD FOR PREPARING AGROCHEMICAL COMPOSITION” (HOKKO CHEMICAL INDUSTRY CO., LTD., priority 2023, dated 2024).

How the values were obtained:
Assay type in all cases: in vivo
[1] = tested on: Echinochloa crus-galli var. formosensis; assay: Test Example 1: herbicidal effect test by soil application in paddy rice; conditions: Echinochloa crus-galli, soil, 336 h; 120 g active ingredient per 10 ares; applied immediately after sowing, flooded pots; 14 days after application; read-out: weed inhibition rate
Procedure, shortened: (§1)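 Paddy soil in Wagner pots (1/10,000 acre) was fertilized (N:P:K 16:16:16) and puddled, then weed seeds were sown 0–1 cm deep, 30 each. Pots were flooded to ~3 cm and kept in a glass greenhouse. Emulsifiable concentrate diluted in water was dropped on immediately after sowing at 120 g a.i. per 10 ares.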

[2] = tested on: Scirpus juncoides; assay: as above; conditions: Schoenoplectiella juncoides, soil, 336 h; 120 g active ingredient per 10 ares; applied immediately after sowing, flooded pots; 14 days after application; read-out: weed inhibition rate
Procedure, shortened: as §1

[3] = tested on: Echinochloa crus-galli var. formosensis; assay: Test Example 2: herbicidal effect test by application during growth period of paddy rice; conditions: Echinochloa crus-galli; 120 g per 10 ares; applied seven days after sowing, flooded pots; 14 days after application; read-out: weed inhibition rate
Procedure, shortened: (§2)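 Steps: puddle fertilized paddy soil; sow 30 seeds of each weed at 0–1 cm; flood to roughly 3 cm and keep in a glasshouse; at day 7 drop in diluted emulsifiable concentrate (120 g a.i. per 10 ares); score inhibition (%) 14 days later, two replicates.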

[4] = tested on: Scirpus juncoides; assay: as above; conditions: Schoenoplectiella juncoides; 120 g per 10 ares; applied seven days after sowing, flooded pots; 14 days after application; read-out: weed inhibition rate
Procedure, shortened: as §2

[5] = tested on: Digitaria ciliaris; assay: Test Example 3: herbicidal effect test by soil application in upland field; conditions: Digitaria ciliaris, 120 g per 10 ares, sprayed one day after sowing, 14 days after application, read-out: weed inhibition rate
Procedure, shortened: (§3)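 Pre-emergence test: seeds mixed into top 1 cm of alluvial loam upland soil in pots; emulsifiable concentrate diluted in water sprayed on soil one day after sowing at 100 L/10 a, 120 g a.i./10 a. Weed inhibition rate (%) scored at 14 days, in duplicate.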

[6] = tested on: Echinochloa crus-galli; assay: as above; conditions: Echinochloa crus-galli, 120 g per 10 ares, sprayed one day after sowing, 14 days after application, read-out: weed inhibition rate
Procedure, shortened: as §3

[7] = tested on: Digitaria ciliaris; assay: Test Example 4: herbicidal effect test by stem and leaf treatment in upland field; conditions: Digitaria ciliaris; 120 g per 10 ares; sprayed seven days after sowing, upland soil; 14 days after application; read-out: weed inhibition rate
[8] = tested on: Echinochloa crus-galli; assay: as above; conditions: Echinochloa crus-galli; 120 g per 10 ares; sprayed seven days after sowing, upland soil; 14 days after application; read-out: weed inhibition rate
[9] = tested on: Echinochloa crus-galli var. formosensis; assay: Test Example 5: herbicidal effect test by soil application in paddy rice (low dose); conditions: Echinochloa crus-galli, soil, 336 h; 7.5 g per 10 ares; applied immediately after sowing, flooded pots; 14 days after application; read-out: weed inhibition rate
Procedure, shortened: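 Flooded-paddy soil application at low dose (7.5 g a.i. per 10 ares), given by dropper as diluted emulsifiable concentrate directly after sowing weeds 0–1 cm deep. Effect evaluated after 14 days in duplicate.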

[10] = tested on: Echinochloa crus-galli var. formosensis; assay: Test Example 6: herbicidal effect test by application during growth period of paddy rice (low dose); conditions: Echinochloa crus-galli; 7.5 g per 10 ares; applied seven days after sowing, flooded pots; 14 days after application; read-out: weed inhibition rate
Procedure, shortened: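 Paddy-soil pots, flooded ~3 cm after sowing weed seeds at 0-1 cm depth, greenhouse-grown. Seven days after sowing, diluted emulsifiable concentrate applied by dropper at 7.5 g active ingredient per 10 ares. Weed inhibition rate (%) scored 14 days after application, in duplicate.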

[11] = tested on: Digitaria ciliaris; assay: Test Example 7: herbicidal effect test by soil application in upland field (low dose); conditions: Digitaria ciliaris, 7.5 g per 10 ares, sprayed one day after sowing, 14 days after application, read-out: weed inhibition rate
Procedure: (§4) The present test was conducted in duplicate for each chemical concentration group, and the weed inhibition rate (%) was determined 14 days after chemical application using the following formula (Math. 1). [formula]
(§5) Pots with an area of 36 cm^2 were filled with upland soil (alluvial loam), twenty seeds each of weeds of Digitaria ciliaris, and Echinochloa crus-galli were uniformly mixed with the top 1 cm layer of soil and the surface was lightly pressed down. One day after sowing, an emulsifiable concentrate prepared according to Formulation Example 5 using the compound shown below was diluted with water, and the diluted solution was sprayed onto the soil surface at a rate of 100 liters per 10 ares. The amount of the active ingredient to be applied was equivalent to 7.5 g per 10 ares. Fourteen days after chemical application, the herbicidal effect was evaluated according to the same criteria as in Test Example 1.

[12] = tested on: Echinochloa crus-galli; assay: as above; conditions: Echinochloa crus-galli, 7.5 g per 10 ares, sprayed one day after sowing, 14 days after application, read-out: weed inhibition rate
Procedure: as §4, §5

[13] = tested on: Digitaria ciliaris; assay: Test Example 8: herbicidal effect test by stem and leaf treatment in upland field (low dose); conditions: Digitaria ciliaris; 7.5 g per 10 ares; sprayed seven days after sowing, upland soil; 14 days after application; read-out: weed inhibition rate
Procedure: as §4
as §5, with “Seven days” for “One day”

[14] = tested on: Echinochloa crus-galli; assay: as above; conditions: Echinochloa crus-galli; 7.5 g per 10 ares; sprayed seven days after sowing, upland soil; 14 days after application; read-out: weed inhibition rate
Procedure: as §4
as §5, with “Seven days” for “One day”

COc1ccccc1CO[C@@H]1C[C@]2(C(C)C)O[C@@]1(C)C[C@@H]2Cl [1-11, (1R,2S,4S,5R)-2-chloro-1-isopropyl-5-[(2-methoxyphenyl)methoxy]-4-methyl-7-oxabicyclo[2.2.1]heptane]
≥ 80%: pest or weed control at 1200 g/ha [1] | pest or weed control at 1200 g/ha [2] | inhibition at 1200 g/ha [3] | inhibition at 1200 g/ha [4] | inhibition at 1200 g/ha [5] | inhibition at 1200 g/ha [6] | inhibition at 1200 g/ha [7] | inhibition at 1200 g/ha [8] | inhibition at 75 g/ha [9] | inhibition at 75 g/ha [10] | inhibition at 75 g/ha [11] | inhibition at 75 g/ha [12] | inhibition at 75 g/ha [13] | inhibition at 75 g/ha [14]

CC(C)[C@]12C[C@@H](OCc3c(F)cccc3F)[C@](C)(C[C@@H]1I)O2 [1-778, (1R,2S,4S,5R)-5-[(2,6-difluorophenyl)methoxy]-2-iodo-1-isopropyl-4-methyl-7-oxabicyclo[2.2.1]heptane]
≥ 80%: pest or weed control at 1200 g/ha [1] | pest or weed control at 1200 g/ha [2] | inhibition at 1200 g/ha [3] | inhibition at 1200 g/ha [4] | inhibition at 1200 g/ha [5] | inhibition at 1200 g/ha [6] | inhibition at 1200 g/ha [7] | inhibition at 1200 g/ha [8] | inhibition at 75 g/ha [9] | inhibition at 75 g/ha [10] | inhibition at 75 g/ha [11] | inhibition at 75 g/ha [12] | inhibition at 75 g/ha [13] | inhibition at 75 g/ha [14]

CC(C)[C@]12C[C@@H](OCc3c(F)cccc3Cl)[C@](C)(C[C@@H]1Cl)O2 [1-653, (1R,2S,4S,5R)-2-chloro-5-[(2-chloro-6-fluoro-phenyl)methoxy]-1-isopropyl-4-methyl-7-oxabicyclo[2.2.1]heptane]
≥ 80%: pest or weed control at 1200 g/ha [1] | pest or weed control at 1200 g/ha [2] | inhibition at 1200 g/ha [3] | inhibition at 1200 g/ha [4] | inhibition at 1200 g/ha [5] | inhibition at 1200 g/ha [6] | inhibition at 1200 g/ha [7] | inhibition at 1200 g/ha [8] | inhibition at 75 g/ha [9] | inhibition at 75 g/ha [10] | inhibition at 75 g/ha [11] | inhibition at 75 g/ha [12] | inhibition at 75 g/ha [13] | inhibition at 75 g/ha [14]

CC(C)[C@]12C[C@@H](OCc3ccccc3Cl)[C@](C)(C[C@@H]1I)O2 [1-756, (1R,2S,4S,5R)-5-[(2-chlorophenyl)methoxy]-2-iodo-1-isopropyl-4-methyl-7-oxabicyclo[2.2.1]heptane]
≥ 80%: pest or weed control at 1200 g/ha [1] | pest or weed control at 1200 g/ha [2] | inhibition at 1200 g/ha [3] | inhibition at 1200 g/ha [4] | inhibition at 1200 g/ha [5] | inhibition at 1200 g/ha [6] | inhibition at 1200 g/ha [7] | inhibition at 1200 g/ha [8] | inhibition at 75 g/ha [9] | inhibition at 75 g/ha [10] | inhibition at 75 g/ha [11] | inhibition at 75 g/ha [12] | inhibition at 75 g/ha [13] | inhibition at 75 g/ha [14]

CC(C)C12CC(OCc3ccccc3Br)C(C)(CC1Cl)O2 (stereo not shown) [1-1295, 2-[(2-bromophenyl)methoxy]-5-chloro-1-methyl-4-isopropyl-7-oxabicyclo[2.2.1]heptane]
≥ 80%: pest or weed control at 1200 g/ha [1] | pest or weed control at 1200 g/ha [2] | inhibition at 1200 g/ha [3] | inhibition at 1200 g/ha [4] | inhibition at 1200 g/ha [5] | inhibition at 1200 g/ha [6] | inhibition at 1200 g/ha [7] | inhibition at 1200 g/ha [8] | inhibition at 75 g/ha [9] | inhibition at 75 g/ha [10] | inhibition at 75 g/ha [11] | inhibition at 75 g/ha [12] | inhibition at 75 g/ha [13] | inhibition at 75 g/ha [14]

CC(C)C12CC(OCc3ccccc3I)C(C)(CC1I)O2 (stereo not shown) [1-1430, 2-iodo-5-[(2-iodophenyl)methoxy]-1-isopropyl-4-methyl-7-oxabicyclo[2.2.1]heptane]
≥ 80%: pest or weed control at 1200 g/ha [1] | pest or weed control at 1200 g/ha [2] | inhibition at 1200 g/ha [3] | inhibition at 1200 g/ha [4] | inhibition at 1200 g/ha [5] | inhibition at 1200 g/ha [6] | inhibition at 1200 g/ha [8] | inhibition at 75 g/ha [9] | inhibition at 75 g/ha [10] | inhibition at 75 g/ha [11] | inhibition at 75 g/ha [12] | inhibition at 75 g/ha [13] | inhibition at 75 g/ha [14]

Cc1ccccc1COC1CC2(C(C)C)C=CC1(C)O2 (stereo not shown) [3-753, 4-methyl-5-[(2-methylphenyl)methoxy]-1-isopropyl-7-oxabicyclo[2.2.1]hept-2-ene]
≥ 80%: pest or weed control at 1200 g/ha [1] | pest or weed control at 1200 g/ha [2] | inhibition at 1200 g/ha [3] | inhibition at 1200 g/ha [4] | inhibition at 1200 g/ha [5] | inhibition at 1200 g/ha [6] | inhibition at 1200 g/ha [8] | inhibition at 75 g/ha [9] | inhibition at 75 g/ha [10] | inhibition at 75 g/ha [11] | inhibition at 75 g/ha [12] | inhibition at 75 g/ha [13] | inhibition at 75 g/ha [14]

Cc1ccccc1COC1CC2(C(C)C)OC1(C)CC2Br (stereo not shown) [1-1343, 5-bromo-1-methyl-2-[(2-methylphenyl)methoxy]-4-isopropyl-7-oxabicyclo[2.2.1]heptane]
≥ 80%: pest or weed control at 1200 g/ha [1] | inhibition at 1200 g/ha [3] | inhibition at 1200 g/ha [5] | inhibition at 1200 g/ha [6] | inhibition at 1200 g/ha [7] | inhibition at 1200 g/ha [8] | inhibition at 75 g/ha [9] | inhibition at 75 g/ha [10] | inhibition at 75 g/ha [11] | inhibition at 75 g/ha [12] | inhibition at 75 g/ha [13] | inhibition at 75 g/ha [14]

COc1ccccc1COC1CC2(C(C)C)OC1(C)CC2Br (stereo not shown) [1-1349, 5-bromo-2-[(2-methoxyphenyl)methoxy]-1-methyl-4-isopropyl-7-oxabicyclo[2.2.1]heptane]
≥ 80%: pest or weed control at 1200 g/ha [1] | inhibition at 1200 g/ha [3] | inhibition at 1200 g/ha [5] | inhibition at 1200 g/ha [6] | inhibition at 1200 g/ha [7] | inhibition at 1200 g/ha [8] | inhibition at 75 g/ha [9] | inhibition at 75 g/ha [10] | inhibition at 75 g/ha [11] | inhibition at 75 g/ha [12] | inhibition at 75 g/ha [13] | inhibition at 75 g/ha [14]

CC(C)[C@]12C[C@@H](OCc3ccc(F)cc3F)[C@](C)(CC1=O)O2 [2-16, (1R,4S,5R)-5-((2,4-difluorobenzyl)oxy)-1-isopropyl-4-methyl-7-oxabicyclo[2.2.1]heptan-2-one]
≥ 80%: pest or weed control at 1200 g/ha [1] | pest or weed control at 1200 g/ha [2] | inhibition at 1200 g/ha [3] | inhibition at 1200 g/ha [5] | inhibition at 1200 g/ha [6] | inhibition at 1200 g/ha [7] | inhibition at 1200 g/ha [8] | inhibition at 75 g/ha [9] | inhibition at 75 g/ha [10] | inhibition at 75 g/ha [11] | inhibition at 75 g/ha [12] | inhibition at 75 g/ha [13] | inhibition at 75 g/ha [14]
